In ChEMBL document CHEMBL2157891 (J Med Chem, 2012):
The source made the active and inactive calls. No cut-off for these calls is given here.

Tests used:
SK-OV-3 [1] = experiment: cells; conditions: Homo sapiens, SK-OV-3, 96 h
SK-OV-3 [2] = experiment: Induction of apoptosis in human SKOV3 cells assessed as caspase 3 cleavage at 3 nM after 24 hrs by Western blot analysis; format: functional, cell-based
SK-OV-3 [3] = experiment: Induction of apoptosis in human SKOV3 cells assessed as caspase 8 cleavage at 3 nM after 24 hrs by Western blot analysis; format: functional, cell-based
MDA-MB-231 [4] = experiment: Induction of apoptosis in human MDA-MB-231 cells assessed as caspase 3 cleavage at 3 nM after 24 hrs by Western blot analysis; format: functional, cell-based
MDA-MB-231 [5] = experiment: Induction of apoptosis in human MDA-MB-231 cells assessed as PARP cleavage at 3 nM after 24 hrs by Western blot analysis; format: functional, cell-based
MDA-MB-231 [6] = experiment: Induction of apoptosis in human MDA-MB-231 cells assessed as caspase 8 cleavage at 3 nM after 24 hrs by Western blot analysis; format: functional, cell-based
MDA-MB-231 [7] = experiment: cells; conditions: Homo sapiens, MDA-MB-231, 96 h
SK-OV-3 [8] = experiment: Induction of apoptosis in human SKOV3 cells assessed as PARP cleavage at 3 nM after 24 hrs by Western blot analysis; format: functional, cell-based
[9] = biological target: Baculoviral IAP repeat-containing protein 2 (Homo sapiens, UniProt Q13490); experiment: Binding affinity to BIR3 domain of cIAP1 by fluorescence polarization assay
MDA-MB-231 [10] = experiment: Induction of apoptosis in human MDA-MB-231 cells assessed as caspase 8 cleavage at 10 nM after 24 hrs by Western blot analysis; format: functional, cell-based
SK-OV-3 [11] = experiment: Induction of apoptosis in human SKOV3 cells assessed as PARP cleavage at 300 nM after 24 hrs by Western blot analysis; format: functional, cell-based
SK-OV-3 [12] = experiment: Induction of apoptosis in human SKOV3 cells assessed as caspase 3 cleavage at 10 nM after 24 hrs by Western blot analysis; format: functional, cell-based
MDA-MB-231 [13] = experiment: Induction of apoptosis in human MDA-MB-231 cells assessed as PARP cleavage at 300 nM after 24 hrs by Western blot analysis; format: functional, cell-based
MDA-MB-231 [14] = experiment: Induction of apoptosis in human MDA-MB-231 cells assessed as caspase 3 cleavage at 10 nM after 24 hrs by Western blot analysis; format: functional, cell-based
SK-OV-3 [15] = experiment: Induction of apoptosis in human SKOV3 cells assessed as caspase 8 cleavage at 10 nM after 24 hrs by Western blot analysis; format: functional, cell-based

Structure (SMILES): CN[C@@H](C)C(=O)N[C@H]1CN(C(=O)CCCCc2ccc(CCCCC(=O)N3CC[C@H]4CC[C@@H](C(=O)NC(c5ccccc5)c5ccccc5)N4C(=O)[C@@H](NC(=O)[C@H](C)NC)C3)cc2)CC[C@H]2CC[C@@H](C(=O)NC(c3ccccc3)c3ccccc3)N2C1=O
- IC50 (SK-OV-3 [1]): 9.6 nM
- Activity (SK-OV-3 [2]): Active
- Activity (SK-OV-3 [3]): Active
- Activity (MDA-MB-231 [4]): Active
- Activity (MDA-MB-231 [5]): Active
- Activity (MDA-MB-231 [6]): Active
- IC50 (MDA-MB-231 [7]): 3.4 nM
- Activity (SK-OV-3 [8]): Active

Structure (SMILES): CN[C@@H](C)C(=O)N[C@H]1CN(C(=O)c2ccc(C(=O)N3CC[C@H]4CC[C@@H](C(=O)NC(c5ccccc5)c5ccccc5)N4C(=O)[C@@H](NC(=O)[C@H](C)NC)C3)cc2)CC[C@H]2CC[C@@H](C(=O)NC(c3ccccc3)c3ccccc3)N2C1=O
- IC50 (SK-OV-3 [1]): 180 nM
- IC50 (MDA-MB-231 [7]): 50.8 nM

Structure (SMILES): CN[C@@H](C)C(=O)N[C@H]1CN(C(=O)CCCCC(=O)N2CC[C@H]3CC[C@@H](C(=O)NC(c4ccccc4)c4ccccc4)N3C(=O)[C@@H](NC(=O)[C@H](C)NC)C2)CC[C@H]2CC[C@@H](C(=O)NC(c3ccccc3)c3ccccc3)N2C1=O
- IC50 (SK-OV-3 [1]): 9.9 nM
- IC50 (MDA-MB-231 [7]): 14.8 nM

Structure (SMILES): CN[C@@H](C)C(=O)N[C@H]1CCCC[C@H]2CC[C@@H](C(=O)N[C@@H](c3ccccc3)c3cn(CCCCCCCCn4cc([C@@H](NC(=O)[C@@H]5CC[C@@H]6CCCC[C@H](NC(=O)[C@H](C)NC)C(=O)N65)c5ccccc5)nn4)nn3)N2C1=O
- IC50 [9]: 2.8 nM
- Ki [9]: < 0.5 nM

Structure (SMILES): CN[C@@H](C)C(=O)N[C@H]1CN(C(=O)CCC(=O)N2CC[C@H]3CC[C@@H](C(=O)NC(c4ccccc4)c4ccccc4)N3C(=O)[C@@H](NC(=O)[C@H](C)NC)C2)CC[C@H]2CC[C@@H](C(=O)NC(c3ccccc3)c3ccccc3)N2C1=O
- IC50 (SK-OV-3 [1]): 27 nM
- IC50 (MDA-MB-231 [7]): 13.8 nM

Structure (SMILES): CN[C@@H](C)C(=O)N[C@H]1CN(C(=O)CCCCCCC(=O)N2CC[C@H]3CC[C@@H](C(=O)NC(c4ccccc4)c4ccccc4)N3C(=O)[C@@H](NC(=O)[C@H](C)NC)C2)CC[C@H]2CC[C@@H](C(=O)NC(c3ccccc3)c3ccccc3)N2C1=O
- IC50 (SK-OV-3 [1]): 11 nM
- IC50 (MDA-MB-231 [7]): 17.2 nM

Structure (SMILES): CN[C@@H](C)C(=O)N[C@H]1CCCC[C@H]2CC[C@@H](C(=O)N[C@@H](c3ccccc3)c3cn(CCCCc4ccc(CCCCn5cc([C@@H](NC(=O)[C@@H]6CC[C@@H]7CCCC[C@H](NC(=O)[C@H](C)NC)C(=O)N76)c6ccccc6)nn5)cc4)nn3)N2C1=O
- Ki [9]: 0.5 nM
- IC50 (SK-OV-3 [1]): 16 nM
- IC50 (MDA-MB-231 [7]): 6.8 nM

Structure (SMILES): CN[C@@H](C)C(=O)N[C@H]1CN(C(C)=O)CC[C@H]2CC[C@@H](C(=O)NC(c3ccccc3)c3ccccc3)N2C1=O
- Activity (MDA-MB-231 [10]): Active
- Activity (SK-OV-3 [11]): Active
- IC50 (SK-OV-3 [1]): 250 nM
- Activity (SK-OV-3 [12]): Active
- Activity (MDA-MB-231 [13]): Active
- Activity (MDA-MB-231 [14]): Active
- Activity (SK-OV-3 [15]): Active
- IC50 (MDA-MB-231 [7]): 115 nM

Structure (SMILES): CN[C@@H](C)C(=O)N[C@H]1CN(C(=O)CCCCCCCCC(=O)N2CC[C@H]3CC[C@@H](C(=O)NC(c4ccccc4)c4ccccc4)N3C(=O)[C@@H](NC(=O)[C@H](C)NC)C2)CC[C@H]2CC[C@@H](C(=O)NC(c3ccccc3)c3ccccc3)N2C1=O
- IC50 (SK-OV-3 [1]): 3.1 nM
- Activity (SK-OV-3 [2]): Active
- Activity (SK-OV-3 [3]): Active
- Activity (MDA-MB-231 [4]): Active
- Activity (MDA-MB-231 [5]): Active
- Activity (MDA-MB-231 [6]): Active
- IC50 (MDA-MB-231 [7]): 7.5 nM
- Activity (SK-OV-3 [8]): Active

Structure (SMILES): CN[C@@H](C)C(=O)N[C@H]1CN(C(=O)CCCCCCCCCCC(=O)N2CC[C@H]3CC[C@@H](C(=O)NC(c4ccccc4)c4ccccc4)N3C(=O)[C@@H](NC(=O)[C@H](C)NC)C2)CC[C@H]2CC[C@@H](C(=O)NC(c3ccccc3)c3ccccc3)N2C1=O
- IC50 (SK-OV-3 [1]): 12 nM
- IC50 (MDA-MB-231 [7]): 10.6 nM

Structure (SMILES): CN[C@@H](C)C(=O)N[C@H]1CN(C(=O)CCCCOCCCCC(=O)N2CC[C@H]3CC[C@@H](C(=O)NC(c4ccccc4)c4ccccc4)N3C(=O)[C@@H](NC(=O)[C@H](C)NC)C2)CC[C@H]2CC[C@@H](C(=O)NC(c3ccccc3)c3ccccc3)N2C1=O
- IC50 (SK-OV-3 [1]): 4.7 nM
- IC50 (MDA-MB-231 [7]): 4.7 nM
